Usually IC50 stands for the midpoint of a concentration-inhibition curve.

Activity calls are given as the source filed them. How the calls were made is not given here.

The target of this assay is Methyl-CpG-binding domain protein 2 (Homo sapiens) (UniProt Q9UBB5). Briefly: MBD2-DBD methyl-oligonucleotide interaction blockers – biochemical, TR-FRET, DNA-binding domain, late stage, dose response (AID 1053169). The conditions noted are these: TR-FRET MBD2-DBD binding to methylated oligonucleotide. (In general: Time-resolved FRET reads energy transfer from a long-lived donor to a nearby acceptor.)
Chain of Methyl-CpG-binding domain protein 2 (Homo sapiens) (Q9UBB5 whole entry, looked up, the tested form may be a part): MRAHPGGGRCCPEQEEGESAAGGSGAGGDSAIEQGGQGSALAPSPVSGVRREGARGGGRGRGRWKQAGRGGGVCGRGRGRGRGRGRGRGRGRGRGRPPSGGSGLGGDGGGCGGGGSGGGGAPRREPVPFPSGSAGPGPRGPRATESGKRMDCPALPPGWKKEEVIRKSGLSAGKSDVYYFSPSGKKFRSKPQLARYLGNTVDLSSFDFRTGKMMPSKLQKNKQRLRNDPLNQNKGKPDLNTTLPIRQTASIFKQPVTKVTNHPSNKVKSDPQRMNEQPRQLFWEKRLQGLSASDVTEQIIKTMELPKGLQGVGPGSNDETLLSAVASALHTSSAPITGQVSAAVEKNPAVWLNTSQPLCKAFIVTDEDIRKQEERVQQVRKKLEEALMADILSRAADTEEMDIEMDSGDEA

On to `CC(C)C(=O)Nc1nnc(SCC(=O)NC2CCCC2)s1`, for which the IC50 was > 43.8 µM (inactive).

As for `CCc1cccc(OCC(=O)Nc2ccc(S(=O)(=O)Nc3ccccn3)cc2)c1`, the IC50 was > 43.8 µM (inactive).

With `Cc1ccc(Cl)cc1N1CCN(S(=O)(=O)c2ccc3c(c2)NC(=O)C(C)C(=O)N3)CC1` (stereo not given), the IC50 was > 43.8 µM (inactive).

On to `COc1ccccc1C(=O)COC(=O)c1ccc(N(C)C)cc1`, for which the IC50 is > 43.8 µM (inactive).

Regarding `CC(=O)N(c1ccccc1)c1nc(/C=C/C(=O)Nc2c(C)cc(C)cc2C)cs1`, the IC50 was > 43.8 µM (inactive).

In the case of `CC(C)n1nc(C(=O)Nc2nc3ccccc3[nH]2)c2ccccc2c1=O`, the IC50 was > 43.8 µM (inactive).

As to `CCCCn1c(NC(C)CC)nc2c1c(=O)[nH]c(=O)n2C` (stereo not given), the IC50 was > 43.8 µM (inactive).

For the compound `CSc1ccc(OC2CCCCC2NS(=O)(=O)c2ccc(Cl)cc2)cc1` (stereo not given), the IC50 is > 43.8 µM (inactive).

Take `Cc1cc(C)n2nc(CC(=O)NCc3ccc(F)cc3)nc2n1`: the IC50 was > 43.8 µM (inactive).

Regarding `CCOc1ccc(S(=O)(=O)N2CCCC(C(=O)NCC3CCCO3)C2)cc1Cl` (stereo not given), the IC50 is > 43.8 µM (inactive).

With `COc1ccc(NC(=O)Cn2cc(C(C)=O)c3ccccc32)cc1`, the IC50 was > 43.8 µM (inactive).

With `CCOC(=O)c1ccc(NC(=O)COc2ccc(CNCCO)cc2OCC)cc1`, the IC50 is > 43.8 µM (inactive).

Regarding `O=C(Nc1ccc(OCc2ccccc2)cc1)c1ccccc1`, the IC50 is > 43.8 µM (inactive).

With `CSc1ccc(OC2CCCCC2NS(=O)(=O)c2ccccc2)cc1` (stereo not given), the IC50 is > 43.8 µM (inactive).

Consider `O=C(CSc1ccccn1)Nc1ccc(N2CCOCC2)cc1`, for which the IC50 was > 43.8 µM (inactive).

Turning to `COc1ccc(NC(=O)CN2CCN(c3ccccc3C)CC2)cc1`, the IC50 was > 43.8 µM (inactive).

Turning to `O=C(CSc1nc(-c2ccccc2)c(-c2ccccc2)o1)N1CCOCC1`, the IC50 is > 43.8 µM (inactive).

For `CCOC(=O)c1oc2ccc(CNC(C)(C)C)c(Cl)c2c1C`, the IC50 is > 43.8 µM (inactive).

For `COc1ccc(C(=O)N2CCC(C(=O)Nc3ccc(C)cc3)CC2)cc1`, the IC50 was > 43.8 µM (inactive).

For the compound `COc1ccc(NC(=O)COC(=O)CCc2ccc(S(=O)(=O)N3CCOCC3)cc2)cc1Cl`, the IC50 was > 43.8 µM (inactive).

Source of the values: PubChem BioAssay AID1053169 (The Scripps Research Institute Molecular Screening Center, 2014).
